Results reported in patent US6303619A, “Meta-substituted acidic 8-phenylxanthine antagonists of A3 human adenosine receptors” (priority 1998, dated 2001).

Target: T1, human A2B adenosine receptor (Homo sapiens, UniProt P29275)
T1 construct: expressed in transfected cells; host or cells: COS7 cells
T1 sequence (P29275 1-332): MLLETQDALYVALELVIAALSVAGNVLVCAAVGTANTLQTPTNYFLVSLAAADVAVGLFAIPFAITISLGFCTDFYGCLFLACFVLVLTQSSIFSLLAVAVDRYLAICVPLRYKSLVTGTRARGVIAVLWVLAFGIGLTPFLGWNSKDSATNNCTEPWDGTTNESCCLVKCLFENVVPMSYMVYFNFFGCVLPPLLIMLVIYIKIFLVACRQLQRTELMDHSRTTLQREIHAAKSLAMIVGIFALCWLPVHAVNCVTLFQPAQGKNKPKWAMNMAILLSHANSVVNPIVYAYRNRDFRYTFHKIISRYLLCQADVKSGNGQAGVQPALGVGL
Test: competition binding, recombinant human A2B adenosine receptor
Settings: A3 versus A2B
Protocol: Monolayer cell culture of transfected COS7 cells were dissociated with 1 mM EDTA in phosphate buffered saline and resuspended in 5 mM Tris, pH7.6/10 mM MgCl2. The cells were subjected to freeze-thaw lysis and the suspension was homogenized in a glass dounce homogenizer. The membranes were pelleted, resuspended in binding buffer, 50 mM Tris pH 7.6/10 mM MgCl2 and incubated with adenosine deaminase before the binding assay. The binding assay was performed by incubating 50-100 Fg of membranes with increasing concentrations of radiolabeled adenosine agonists. Bound ligand was separated from free ligand by filtration on a SKATRON CELL […] equipped with a receptor binding filtermat. Bound radioactivity was measured by scintillation counting. Substances which bind to or enhance binding to expressed human adenosine receptors in COS and CHO cells can be identified in competition binding assays with radiolabeled adenosine or xanthine analogs. […] Membranes were prepared from transiently transfected COS7 cells 48 h after transfection or from G418-selected stably transfected CHO or HEK 293 cells. […] Protein concentration was determined by tie method of Bradford ((1976) Anal. Biochem. 72: 248-250). […] Bound radioactivity was measured by scintillation counting. Non-specific binding was measured on membranes prepared from non-transfected COS7 cells.

CCCn1c(=O)c2[nH]c(-c3cccc(C=CC(=O)O)c3)nc2n(CCC)c1=O [BW-3911] was tested, and the “fold selectivity for A3 compared to human A2B” value was 70 fold.
